Test results reported in ChEMBL document CHEMBL6153084, “The development of α, β-unsaturated lactam-based andrographolide derivatives as anti-gastric cancer agents with the ability of inhibiting the ERK/c-Fos/Jun pathway” (Eur J Med Chem, 2025).
Active and inactive are the calls of the source. The calls are words filed in the database; no cut-off is given here.

How the values were obtained:
[1] = test system: MGC-803; experiment: Antiproliferative activity against human MGC-803 cells assessed as inhibition of cell growth incubated for 24 to 72 hrs by MTT assay; assay type: functional, cell-based
[2] = test system: A549; experiment: Antiproliferative activity against human A549 cells assessed as inhibition of cell growth incubated for 24 to 72 hrs by MTT assay; assay type: functional, cell-based; conditions: time 24-72 hrs
[3] = test system: ECa-109 cell line; experiment: Antiproliferative activity against human Eca-109 cells assessed as inhibition of cell growth incubated for 24 to 72 hrs by MTT assay; assay type: functional, cell-based; conditions: time 24-72 hrs
[4] = test system: MCF7; experiment: Antiproliferative activity against human MCF7 cells assessed as inhibition of cell growth incubated for 24 to 72 hrs by MTT assay; assay type: functional, cell-based; conditions: time 24-72 hrs
[5] = test system: HGC-27; experiment: Antiproliferative activity against human HGC-27 cells assessed as inhibition of cell growth incubated for 48 hrs by MTT assay; assay type: functional, cell-based; conditions: HGC-27, 48 h
[6] = test system: BGC-823; experiment: Antiproliferative activity against human BGC-823 cells assessed as inhibition of cell growth incubated for 48 hrs by MTT assay; assay type: functional, cell-based; conditions: BGC-823, 48 h
[7] = test system: AGS; experiment: Antiproliferative activity against human AGS cells assessed as inhibition of cell growth incubated for 48 hrs by MTT assay; assay type: functional, cell-based
[8] = test system: MGC-803; experiment: Antiproliferative activity against human MGC-803 cells assessed as inhibition of cell growth incubated for 24 to 48 hrs by MTT assay; assay type: functional, cell-based
[9] = test system: MGC-803; experiment: Antiproliferative activity against human MGC-803 cells assessed as inhibition of cell growth incubated for 72 hrs by MTT assay; assay type: functional, cell-based; conditions: MGC-803, 72 h
[10] = test system: MGC-803; experiment: Antiproliferative activity against human MGC-803 cells assessed as inhibition of cell growth upto 2.5 uM by MTT assay; assay type: functional, cell-based; conditions: time 24-72 hrs
[11] = test system: MGC-803; experiment: Antiproliferative activity against human MGC-803 cells assessed as reduction in clone areas incubated for 48 hrs […]; assay type: functional, cell-based; conditions: dose <= 2.0 µM
[12] = test system: MGC-803; experiment: Inhibition of cell migration in human MGC-803 cells incubated for 24 hrs by microscopic analysis; assay type: functional, cell-based; conditions: dose <= 1.0 µM
[13] = test system: MGC-803; experiment: Upregulation of E-cadherin expression in human MGC-803 cells at 1 to 4 uM incubated for 48 hrs by Western blot analysis; assay type: functional, cell-based; conditions: dose 1-4 µM
[14] = test system: MGC-803; experiment: Downregulation of alpha-SMA expression in human MGC-803 cells at 1 to 4 uM incubated for 48 hrs by Western blot analysis; assay type: functional, cell-based; conditions: dose 1-4 µM
[15] = test system: MGC-803; experiment: Induction of cell cycle arrest in human MGC-803 cells assessed as accumulation of cells at G2/M phase at 0.25 uM incubated for 48 hrs by PI staining based flow cytometry analysis; assay type: functional
[16] = test system: MGC-803; experiment: Induction of cell cycle arrest in human MGC-803 cells assessed as accumulation of cells at G2/M phase at 1 uM incubated for 48 hrs by PI staining based flow cytometry analysis; assay type: functional
[17] = test system: MGC-803; experiment: Induction of cell cycle arrest in human MGC-803 cells assessed as accumulation of cells at G2/M phase incubated for 48 hrs by PI staining based flow cytometry analysis; assay type: functional; conditions: dose 0.25-1 µM
[18] = test system: MGC-803; experiment: Induction of apoptosis in human MGC-803 cells assessed as viable cells at 1 uM incubated for 48 hrs by Annexin V-FITC/PI staining based flow cytometry analysis (reference value: 93.9%); assay type: functional; conditions: read-out: Activity
[19] = test system: MGC-803; experiment: Induction of apoptosis in human MGC-803 cells assessed as early apoptotic cells at 1 uM incubated for 48 hrs by Annexin V-FITC/PI staining based flow cytometry analysis (reference value: 0.30%); assay type: functional
[20] = test system: MGC-803; experiment: Induction of apoptosis in human MGC-803 cells assessed as necrotic cells at 1 uM incubated for 48 hrs by Annexin V-FITC/PI staining based flow cytometry analysis (reference value: 0.83%); assay type: functional
[21] = test system: MGC-803; experiment: Induction of apoptosis in human MGC-803 cells assessed as viable cells at 2 uM incubated for 48 hrs by Annexin V-FITC/PI staining based flow cytometry analysis (reference value: 93.9%); assay type: functional; conditions: read-out: Activity
[22] = test system: MGC-803; experiment: Induction of apoptosis in human MGC-803 cells assessed as late apoptotic cells at 2 uM incubated for 48 hrs by Annexin V-FITC/PI staining based flow cytometry analysis (reference value: 0.98%); assay type: functional
[23] = test system: MGC-803; experiment: Induction of apoptosis in human MGC-803 cells assessed as viable cells at 4 uM incubated for 48 hrs by Annexin V-FITC/PI staining based flow cytometry analysis (reference value: 93.9%); assay type: functional; conditions: read-out: Activity
[24] = test system: MGC-803; experiment: Induction of apoptosis in human MGC-803 cells assessed as early apoptotic cells at 4 uM incubated for 48 hrs by Annexin V-FITC/PI staining based flow cytometry analysis (reference value: 0.30%); assay type: functional
[25] = test system: MGC-803; experiment: Induction of apoptosis in human MGC-803 cells assessed as late apoptotic cells at 4 uM incubated for 48 hrs by Annexin V-FITC/PI staining based flow cytometry analysis (reference value: 0.98%); assay type: functional
[26] = test system: MGC-803; experiment: Induction of apoptosis in human MGC-803 cells assessed as necrotic cells at 4 uM incubated for 48 hrs by Annexin V-FITC/PI staining based flow cytometry analysis (reference value: 0.83%); assay type: functional
[27] = test system: MGC-803; experiment: Induction of ROS accumulation in human MGC-803 cells assessed as increase in fluorescence intensity at 1 to 4 uM incubated for 48 min by DCFH-DA and PI staining based microscopic analysis; assay type: functional, cell-based; conditions: dose 1-4 µM
[28] = test system: MGC-803; experiment: Induction of apoptosis in human MGC-803 cells assessed as upregulation of cleaved caspase-3 expression at 1 to 4 uM incubated for 24 hrs by Western blot analysis; assay type: functional, cell-based; conditions: dose 1-4 µM
[29] = test system: MGC-803; experiment: Induction of apoptosis in human MGC-803 cells assessed as downregulation of […] expression at 1 to 4 uM incubated for 24 hrs by Western blot analysis; assay type: functional, cell-based; conditions: dose 1-4 µM
[30] = test system: MGC-803; experiment: Downregulation of c-FOS level in human MGC-803 cells at 4 uM incubated for 24 hrs by immunoblotting analysis; assay type: functional, cell-based
[31] = test system: MGC-803; experiment: Downregulation of c-jun level in human MGC-803 cells at 4 uM incubated for 24 hrs by immunoblotting analysis; assay type: functional, cell-based
[32] = test system: MGC-803; experiment: Inhibition of ERK phosphorylation in human MGC-803 cells at 4 uM measured after 24 hrs by Western blot analysis; assay type: cell-based
[33] = test system: MGC-803; experiment: Downregulation of ACAT2 mRNA level in human MGC-803 cells at 4 uM incubated for 24 hrs by RT-qPCR analysis; assay type: functional, cell-based
[34] = test system: MGC-803; experiment: Downregulation of ACSS2 mRNA level in human MGC-803 cells at 4 uM incubated for 24 hrs by RT-qPCR analysis; assay type: functional, cell-based
[35] = test system: MGC-803; experiment: Lipid-lowering activity in human MGC-803 cells assessed as reduction in lipid droplet accumulation by Oil Red O staining based analysis; assay type: functional, cell-based; conditions: dose 1-4 µM
[36] = test system: MGC-803; experiment: Lipid-lowering activity in human MGC-803 cells assessed as reduction in lipid size by Oil Red O staining based analysis; assay type: functional, cell-based; conditions: dose 1-4 µM
[37] = test system: MGC-803; experiment: Antitumor activity against human MGC-803 cells xenografted in BALB/c mouse assessed as inhibition of tumor growth at 25 mg/kg, IG administered for 14 days; assay type: functional; conditions: MGC-803, po, 336 h, time 14 day, read-out: TGI
[38] = Toxicity in BALB/c mouse implanted with human MGC-803 cells assessed as body weight loss at 25 to 50 mg/kg, IG; assay type: organism-based; conditions: in vivo, po, dose 25-50 mg/kg

## C=C1CC[C@@H]2[C@](C)(CO)[C@H](O)CC[C@@]2(C)[C@@H]1/C=C/C1=CC(=C/c2ccc(C)cc2)/NC1=O
[1]
  IC50: 2.31 µM
[1]; time 24-72 hrs
  Activity: Dose-dependent-effect
[2]
  Activity: inactive
[3]
  Activity: inactive
[4]
  Activity: inactive
[5]
  IC50: 6.5 µM
[6]
  IC50: 38 µM
[7]
  IC50: 5.24 µM
[8]
  IC50: 3.56 µM
[9]
  IC50: 2.87 µM
[10]
  Activity: Time-dependent-effect
[11]
  Activity: Dose-dependent-effect
[12]
  inhibition: Dose-dependent-effect
[13]
  Activity: Active
[14]
  Activity: Active
[15]
  Activity: 9.59%
[16]
  Activity: 25.4%
[17]
  Activity: Dose-dependent-effect
[18]
  viability at 1 µM: 71.9%
[19]
  Activity: 0.44%
[20]
  Activity: 12.6%
[21]
  viability at 2 µM: 40.2%
[22]
  Activity: 41.5%
[23]
  viability at 4 µM: 16%
[24]
  Activity: 12.4%
[25]
  Activity: 47.5%
[26]
  Activity: 4.54%
[27]
  Activity: Active
[28]
  Activity: Active
[29]
  Activity: Active
[30]
  Activity: Active
[31]
  Activity: Active
[32]
  inhibition: Active
[33]
  Activity: Active
[34]
  Activity: Active
[35]
  Activity: Dose-dependent-effect
[36]
  Activity: Dose-dependent-effect
[37]
  inhibition in vivo at 25 mg/kg: 20%
[38]
  Activity: Non-toxic
